Molecular target: T1, YHR112C (Saccharomyces cerevisiae, UniProt P38716)
T1 sequence (P38716 1-378): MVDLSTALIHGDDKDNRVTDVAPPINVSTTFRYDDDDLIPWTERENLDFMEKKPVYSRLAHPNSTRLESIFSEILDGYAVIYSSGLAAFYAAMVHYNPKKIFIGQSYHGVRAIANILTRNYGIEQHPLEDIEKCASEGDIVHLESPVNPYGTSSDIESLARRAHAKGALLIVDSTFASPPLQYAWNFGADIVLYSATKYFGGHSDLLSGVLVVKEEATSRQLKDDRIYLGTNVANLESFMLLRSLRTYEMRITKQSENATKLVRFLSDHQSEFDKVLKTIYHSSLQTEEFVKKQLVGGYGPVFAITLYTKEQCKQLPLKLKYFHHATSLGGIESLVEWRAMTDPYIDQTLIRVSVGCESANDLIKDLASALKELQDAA
Test: HPLC of L-Met depletion and alpha-ketobutyrate
Type: biochemical
Conditions: 50 mM Tris-HCl pH 8.0; 20 mM L-Met; 5 μM PLP; 30°C; 1 h; weak activity

`CSCC[C@H](N)C(=O)O` [L‐Met] was tested, and the “HPLC of L-Met depletion and alpha-ketobutyrate” value was “while weak changes were observed for YHR112C”.

— paper PMC8313282 (Microbial Biotechnology, 2021)
